Assay results reported in patent US20240239755A1, “SUBSTITUTED PYRIDAZINONES, SALTS OR N-OXIDES THEREOF AND THEIR USE AS HERBICIDALLY ACTIVE SUBSTANCES” (Bayer Aktiengesellschaft, priority 2021, published 2024).

Columns and labels:
Format in all cases: in vivo
Kochia scoparia (KCHSC) [1] = assay: Herbicidal pre-emergence action, 1280 g/ha (Table A4); conditions: visual grading after ca. 3 weeks vs untreated controls
Procedure, shortened: (§1)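 Weed seeds sown in sandy loam pots and covered with soil; compounds formulated as WP or EC applied to the soil surface in water with 0.5% additive at 600 L water/ha. Pots kept in a greenhouse under optimum growth conditions; damage visually graded after ca. 3 weeks versus untreated controls (0% = as control, 100% = plants dead).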

Lolium rigidum (LOLRI) [2] = assay: Herbicidal pre-emergence action, 1280 g/ha (Table A5); conditions: visual grading after ca. 3 weeks vs untreated controls
Procedure, shortened: as §1

[3] = test system: Matricaria inodora (MATIN); assay: Herbicidal pre-emergence action, 1280 g/ha (Table A6); conditions: visual grading after ca. 3 weeks vs untreated controls
Procedure, shortened: as §1

Poa annua (POAAN) = assay: Herbicidal pre-emergence action, 1280 g/ha (Table A7); conditions: visual grading after ca. 3 weeks vs untreated controls
Text: (§2) Seeds of mono- and dicotyledonous weed plants were sown in plastic pots (double sowings with one species of mono- and one species of dicotyledonous weed plants per pot), in sandy loam, and covered with soil. The compounds according to the invention, formulated in the form of wettable powders (WP) or as emulsifiable concentrates (EC), were applied to the surface of the covering soil as an aqueous suspension or as an emulsion, with the addition of 0.5% of an additive, at an application rate of 600 litres of water per hectare (converted). Following treatment, the pots were placed in a greenhouse and kept under optimum growth conditions for the test plants. The visual grading of the damage to the test plants was carried out after ca. 3 weeks in comparison to untreated controls (herbicidal effect in percent (%): 100% effect=plants have died, 0% effect=as control plants). Tables A1 to A11 below, show the effects of selected compounds of the general formula (I) according to Table 1 on various harmful plants and an application rate corresponding to 1280 g/ha obtained by the experimental procedure mentioned above.

Stellaria media (STEME) [4] = assay: Herbicidal pre-emergence action, 1280 g/ha (Table A9); conditions: visual grading after ca. 3 weeks vs untreated controls
Procedure, shortened: as §1

[5] = test system: Amaranthus retroflexus (AMARE); assay: Herbicidal pre-emergence action, 1280 g/ha (Table A11); conditions: visual grading after ca. 3 weeks vs untreated controls
Procedure, shortened: as §1

[6] = test system: Abutilon theophrasti (ABUTH); assay: Herbicidal post-emergence action, 1280 g/ha (Table B1); conditions: visual assessment after ca. 3 weeks vs untreated controls
Procedure, shortened: (§3)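 Visual percent damage relative to untreated plants (100% dead, 0% no effect) was rated about 3 weeks after treatment in the greenhouse. WP or EC preparations with 0.5% additive were applied at 600 L water/ha onto single-leaf-stage plants grown 2–3 weeks in sandy loam pots.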

[7] = test system: Echinochloa crus-galli (ECHCG); assay: Herbicidal post-emergence action, 1280 g/ha (Table B3); conditions: visual assessment after ca. 3 weeks vs untreated controls
Text: (§4) Seeds of mono- and dicotyledonous weed plants were sown in plastic pots (double sowings with one species of mono- and one species of dicotyledonous weed plants per pot), in sandy loam, covered with soil and grown under controlled growth conditions. 2 to 3 weeks after sowing, the test plants were sprayed in the single-leaf stage. The compounds according to the invention, formulated in the form of wettable powders (WP) or as emulsifiable concentrates (EC), were sprayed onto the green plant parts as an aqueous suspension or as an emulsion, with the addition of 0.5% of an additive, at an application rate of 600 litres of water per hectare (converted). The test plants were placed in the greenhouse for ca. 3 weeks under optimum growth conditions, and then the effect of the preparations was assessed visually in comparison with untreated controls (herbicidal effect in percent (%): 100% effect=plants have died, 0% effect=as control plants). Tables B1 to B11 below, show the effects of selected compounds of the general formula (I) according to Table 1 on various harmful plants using an application rate corresponding to 1280 g/ha obtained by the experimental procedure mentioned above.

Lolium rigidum (LOLRI) [8] = assay: Herbicidal post-emergence action, 1280 g/ha (Table B5); conditions: visual assessment after ca. 3 weeks vs untreated controls
Text: as §4

[9] = test system: Matricaria inodora (MATIN); assay: Herbicidal post-emergence action, 1280 g/ha (Table B6); conditions: visual assessment after ca. 3 weeks vs untreated controls
Procedure, shortened: as §3

Stellaria media (STEME) [10] = assay: Herbicidal post-emergence action, 1280 g/ha (Table B9); conditions: visual assessment after ca. 3 weeks vs untreated controls
Procedure, shortened: as §3

[11] = test system: Amaranthus retroflexus (AMARE); assay: Herbicidal post-emergence action, 1280 g/ha, AMARE; conditions: visual grading vs untreated controls
Procedure, shortened: (§5)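 Visual rating ~3 weeks after treatment: 0% equals untreated control, 100% means plants died. Treatment was a 1280 g/ha foliar spray (600 L water/ha, 0.5% additive, WP or EC formulation) applied to single-leaf-stage plants grown 2–3 weeks in sandy loam under controlled conditions.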

Lolium rigidum (LOLRI) [12] = assay: Herbicidal pre-emergence action, 320 g/ha (Table C2); conditions: visual grading after ca. 3 weeks vs untreated controls
Text: as §2, with “Tables C1” for “Tables A1”, “to C6” for “to A11”, “plants using” for “plants and”, “to 320” for “to 1280”

Stellaria media (STEME) [13] = assay: Herbicidal pre-emergence action, 320 g/ha, STEME; conditions: visual grading after ca. 3 weeks
Procedure, shortened: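 Percent herbicidal effect, graded by eye about 3 weeks after treatment relative to untreated pots (0% matching controls, 100% dead plants). Application of 320 g/ha onto soil covering freshly sown seeds, as aqueous suspension or emulsion plus 0.5% additive at 600 L/ha; pots kept in greenhouse.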

[14] = test system: Abutilon theophrasti (ABUTH); assay: Herbicidal post-emergence action, 320 g/ha, ABUTH; conditions: visual grading after ca. 3 weeks
Procedure, shortened: (§6)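 Weeds were sown in sandy loam pots and sprayed post-emergence at the single-leaf stage, 2 to 3 weeks after sowing, with WP or EC formulations in water plus 0.5% additive at 600 L/ha. Visual % injury versus untreated controls was scored after ca. 3 weeks in the greenhouse.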

Stellaria media (STEME) [15] = assay: Herbicidal post-emergence action, 320 g/ha, STEME; conditions: visual grading after ca. 3 weeks
Procedure, shortened: as §6

[16] = test system: Amaranthus retroflexus (AMARE); assay: Herbicidal post-emergence action, 320 g/ha, AMARE; conditions: visual grading after ca. 3 weeks
Procedure, shortened: as §6

[17] = test system: Abutilon theophrasti (ABUTH); assay: Herbicidal pre-emergence action, 1280 g/ha (Table A1); conditions: visual grading after ca. 3 weeks vs untreated controls
Text: as §2

Kochia scoparia (KCHSC) [18] = assay: Herbicidal post-emergence action, 1280 g/ha (Table B4); conditions: visual assessment after ca. 3 weeks vs untreated controls
Procedure, shortened: as §3

Veronica persica (VERPE) [19] = assay: Herbicidal post-emergence action, 1280 g/ha, VERPE; conditions: visual grading vs untreated controls
Procedure, shortened: as §5

Setaria viridis (SETVI) [20] = assay: Herbicidal post-emergence action, 1280 g/ha (Table B8); conditions: visual assessment after ca. 3 weeks vs untreated controls
Text: as §4

Kochia scoparia (KCHSC) [21] = assay: Herbicidal post-emergence action, 320 g/ha, KCHSC; conditions: visual grading after ca. 3 weeks
Text: as §4, with “plants).” for “plants). Tables B1 to B11 below, show the effects of selected compounds of the general formula (I) according to Table 1 on various harmful plants using an application rate corresponding to 1280 g/ha obtained by the experimental procedure mentioned above.”
(§7) Tables D1 to D8 below, show the effects of selected compounds of the general formula (I) according to Table 1 on various harmful plants using an application rate corresponding to 320 g/ha obtained by the experimental procedure mentioned above.

Setaria viridis (SETVI) [22] = assay: Herbicidal pre-emergence action, 1280 g/ha (Table A8); conditions: visual grading after ca. 3 weeks vs untreated controls
Text: as §2

Lolium rigidum (LOLRI) [23] = assay: Herbicidal post-emergence action, 320 g/ha, LOLRI; conditions: visual grading after ca. 3 weeks
Text: as §4, with “plants).” for “plants). Tables B1 to B11 below, show the effects of selected compounds of the general formula (I) according to Table 1 on various harmful plants using an application rate corresponding to 1280 g/ha obtained by the experimental procedure mentioned above.”
as §7

[24] = test system: Matricaria inodora (MATIN); assay: Herbicidal post-emergence action, 320 g/ha, MATIN; conditions: visual grading after ca. 3 weeks
Text: as §4, with “plants).” for “plants). Tables B1 to B11 below, show the effects of selected compounds of the general formula (I) according to Table 1 on various harmful plants using an application rate corresponding to 1280 g/ha obtained by the experimental procedure mentioned above.”
as §7

Veronica persica (VERPE) [25] = assay: Herbicidal post-emergence action, 320 g/ha, VERPE; conditions: visual grading after ca. 3 weeks
Text: as §4, with “plants).” for “plants). Tables B1 to B11 below, show the effects of selected compounds of the general formula (I) according to Table 1 on various harmful plants using an application rate corresponding to 1280 g/ha obtained by the experimental procedure mentioned above.”
as §7

Cc1nn(C)c(=O)c(Oc2ccccc2C(C)C)c1O [Example I-022]
90%: herbicidal effect KCHSC (Kochia scoparia (KCHSC) [1]) | herbicidal effect MATIN [3] | herbicidal effect POAAN (Poa annua (POAAN)) | herbicidal effect AMARE [5] | herbicidal effect ECHCG [7] | herbicidal effect LOLRI (Lolium rigidum (LOLRI) [8]) | herbicidal effect MATIN [9] | herbicidal effect AMARE [11] | herbicidal effect ABUTH [14] | herbicidal effect STEME (Stellaria media (STEME) [15]) | herbicidal effect AMARE [16]
100%: herbicidal effect LOLRI (Lolium rigidum (LOLRI) [2]) | herbicidal effect STEME (Stellaria media (STEME) [4]) | herbicidal effect ABUTH [6] | herbicidal effect STEME (Stellaria media (STEME) [10]) | herbicidal effect LOLRI (Lolium rigidum (LOLRI) [12]) | herbicidal effect STEME (Stellaria media (STEME) [13])

CC(=O)Oc1c(C)nn(C)c(=O)c1Oc1ccccc1OC(F)(F)F [Example I-029]
100%: herbicidal effect LOLRI (Lolium rigidum (LOLRI) [2]) | herbicidal effect MATIN [3] | herbicidal effect STEME (Stellaria media (STEME) [4]) | herbicidal effect AMARE [5] | herbicidal effect ABUTH [6] | herbicidal effect STEME (Stellaria media (STEME) [10])
90%: herbicidal effect ABUTH [17] | herbicidal effect KCHSC (Kochia scoparia (KCHSC) [1]) | herbicidal effect ECHCG [7] | herbicidal effect KCHSC (Kochia scoparia (KCHSC) [18]) | herbicidal effect LOLRI (Lolium rigidum (LOLRI) [8]) | herbicidal effect MATIN [9] | herbicidal effect VERPE (Veronica persica (VERPE) [19]) | herbicidal effect AMARE [11] | herbicidal effect LOLRI (Lolium rigidum (LOLRI) [12]) | herbicidal effect ABUTH [14] | herbicidal effect STEME (Stellaria media (STEME) [15]) | herbicidal effect AMARE [16]

CCOC(=O)Oc1c(C)nn(C)c(=O)c1Oc1ccc(Cl)cc1C1CC1 [Example I-036]
90%: herbicidal effect LOLRI (Lolium rigidum (LOLRI) [2]) | herbicidal effect ABUTH [6] | herbicidal effect KCHSC (Kochia scoparia (KCHSC) [18]) | herbicidal effect LOLRI (Lolium rigidum (LOLRI) [8]) | herbicidal effect MATIN [9] | herbicidal effect SETVI (Setaria viridis (SETVI) [20]) | herbicidal effect STEME (Stellaria media (STEME) [10]) | herbicidal effect VERPE (Veronica persica (VERPE) [19]) | herbicidal effect ABUTH [14] | herbicidal effect KCHSC (Kochia scoparia (KCHSC) [21]) | herbicidal effect AMARE [16]
100%: herbicidal effect MATIN [3] | herbicidal effect STEME (Stellaria media (STEME) [4]) | herbicidal effect AMARE [11]

CCOC(=O)Oc1c(C)nn(C)c(=O)c1Oc1cc(F)ccc1C1CC1 [Example I-045]
90%: herbicidal effect ABUTH [17] | herbicidal effect MATIN [3] | herbicidal effect SETVI (Setaria viridis (SETVI) [22]) | herbicidal effect KCHSC (Kochia scoparia (KCHSC) [18]) | herbicidal effect SETVI (Setaria viridis (SETVI) [20]) | herbicidal effect LOLRI (Lolium rigidum (LOLRI) [12]) | herbicidal effect STEME (Stellaria media (STEME) [13]) | herbicidal effect KCHSC (Kochia scoparia (KCHSC) [21]) | herbicidal effect MATIN [24] | herbicidal effect STEME (Stellaria media (STEME) [15]) | herbicidal effect AMARE [16]
100%: herbicidal effect LOLRI (Lolium rigidum (LOLRI) [2]) | herbicidal effect STEME (Stellaria media (STEME) [4]) | herbicidal effect AMARE [5] | herbicidal effect ABUTH [6] | herbicidal effect LOLRI (Lolium rigidum (LOLRI) [8]) | herbicidal effect MATIN [9] | herbicidal effect STEME (Stellaria media (STEME) [10]) | herbicidal effect VERPE (Veronica persica (VERPE) [19]) | herbicidal effect AMARE [11] | herbicidal effect ABUTH [14] | herbicidal effect LOLRI (Lolium rigidum (LOLRI) [23]) | herbicidal effect VERPE (Veronica persica (VERPE) [25])

CCOC(=O)Oc1c(C)nn(C)c(=O)c1Oc1cc(F)ccc1Br [Example I-088]
100%: herbicidal effect LOLRI (Lolium rigidum (LOLRI) [2]) | herbicidal effect MATIN [3] | herbicidal effect AMARE [5] | herbicidal effect AMARE [11]
90%: herbicidal effect STEME (Stellaria media (STEME) [4]) | herbicidal effect LOLRI (Lolium rigidum (LOLRI) [8]) | herbicidal effect MATIN [9] | herbicidal effect SETVI (Setaria viridis (SETVI) [20]) | herbicidal effect STEME (Stellaria media (STEME) [10]) | herbicidal effect LOLRI (Lolium rigidum (LOLRI) [12]) | herbicidal effect AMARE [16]

CCOC(=O)Oc1c(C)nn(C)c(=O)c1Oc1cc(F)c(F)cc1Br [Example I-093]
90%: herbicidal effect KCHSC (Kochia scoparia (KCHSC) [1]) | herbicidal effect MATIN [3] | herbicidal effect AMARE [5] | herbicidal effect ABUTH [6] | herbicidal effect MATIN [9] | herbicidal effect SETVI (Setaria viridis (SETVI) [20]) | herbicidal effect STEME (Stellaria media (STEME) [10]) | herbicidal effect VERPE (Veronica persica (VERPE) [19]) | herbicidal effect MATIN [24]
100%: herbicidal effect AMARE [11]
